Results on two molecules are retold here after US10501805B2, “Methods for determining responsiveness to MEK/ERK inhibitors” (CROWN BIOSCIENCE, INC. (TAICANG), priority 2014, dated 2019).

What all share (experiment): CellTiter-Glo cell viability, IC50 determination
Type in all cases: cell-based
In general terms: ATP-based viability assays read luminescence as a measure of living cells.

In assay [1] the test system is A2058. The note with it: Homo sapiens, 72 h; A2058 cell line; 3-day CTG assay; read-out: Absolute IC50. The essentials:
(§1)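 Cells were seeded at 4×10^3 cells/well in medium with 10% FBS, left overnight at 37 °C and 5% CO2, then treated in triplicate on Day 0. On Day 3, viability was read by CellTiter-Glo luminescence. Absolute IC50 is where a sigmoidal nonlinear fit crosses 50% surviving rate.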

For assay [2], the system named is NCI-H441. To be noted: Homo sapiens, 72 h; NCI-H441 cell line; 3-day CTG assay; read-out: Absolute IC50. In a few lines:
as §1

Assay [3] relates to BT474. To be noted: Homo sapiens, BT-474, 72 h; BT474 cell line; 3-day CTG assay; read-out: Absolute IC50. In a few lines: as §1
For assay [4], the system named is Hela. The note with it: Homo sapiens, 72 h; Hela cell line; 3-day CTG assay; read-out: Absolute IC50. The essentials:
as §1

Assay [5] concerns HT1376. The note with it: Homo sapiens, HT-1376, 72 h; HT1376 cell line; 3-day CTG assay; read-out: Absolute IC50. In a few lines: as §1
The test system of assay [6] is NCI-H460. To be noted: Homo sapiens, 72 h; NCI-H460 cell line; 3-day CTG assay; read-out: Absolute IC50. In a few lines: as §1
For assay [7], the system named is HepG2. To be noted: Homo sapiens, 72 h; HepG2 cell line; 3-day CTG assay; read-out: Absolute IC50. The essentials: as §1

The IC50 is the midpoint of a concentration-inhibition curve.

As for `CC(=O)Nc1cccc(-n2c(=O)n(C3CC3)c(=O)c3c(Nc4ccc(I)cc4F)n(C)c(=O)c(C)c32)c1` [Trametinib, N-(3-{3-Cyclopropyl-5-[(2-fluoro-4-iodophenyl)amino]-6,8-dimethyl-2,4,7-trioxo-3,4,6,7-tetrahydropyrido[4,3-d]pyrimidin-1(2H)-yl}phenyl)acetamide], the results for the concentration for half-maximal inhibition (IC50) in assay [1], in assay [2] and in assay [3] were 0.12 µM, 325 µM and 39 µM, respectively.
Take `O=C(Nc1ccc2[nH]nc(-c3ccncc3)c2c1)[C@@H]1CCN(CC(=O)N2CCN(c3ccc(-c4ncccn4)cc3)CC2)C1` [SCH772984, (R)-1-(2-oxo-2-(4-(4-(pyrimidin-2-yl)phenyl)piperazin-1-yl)ethyl)-N-(3-(pyridin-4-yl)-1H-indazol-5-yl)pyrrolidine-3-carboxamide]: the concentration for half-maximal inhibition (IC50) in assay [4] turned out to be 5.38 µM; in assay [5], 4.27 µM; in assay [6], 5.53 µM; in assay [7], 0.13 µM.
